The values below are quoted from earlier work in patent publication US8367605B2, “Copolymer-1 improvements in compositions of copolymers” (Yeda Research and Development Co. Ltd., priority 1994, dated 2013).

For data set [1], the system named is patients with the exacerbating-remitting form of multiple sclerosis. The following applies: daily injections; N. Engl. J. Med. [1987]317:408.
For data set [2], the system named is experimental autoimmune encephalomyelitis (EAE). The following applies: Eur. J. Immunol. [1971]1:242; U.S. Pat. No. 3,849,550.

Take copolymer-1: in data set [1], the “disability status versus control patients” value is recorded as “smaller increases in their disability status” and the “exacerbations versus control patients” value was “fewer exacerbations”. In addition, the “effect on EAE” value in data set [2] was “suppress EAE”.
